# Assay results reported in the supplement of paper PMC13380429.
# Key:
# Settings in all cases: 72 h
# [1] = system: Calu-3; experiment: cell viability relative to DMSO; higher = less toxic
# [2] = system: U2OS; experiment: as above
# [3] = system: Vero E6; experiment: as above
# [4] = system: Caco-2; experiment: as above
# [5] = system: HepG2; experiment: as above
# [6] = system: Calu-3; experiment: drug sensitivity score (DSS) for viability; higher = more toxic; extreme values may be limits of the assay
# [7] = system: U2OS; experiment: as above
# [8] = system: Vero E6; experiment: as above
# [9] = system: Caco-2; experiment: as above
# [10] = system: HepG2; experiment: as above
# [11] = system: Calu-3; experiment: relative viability EC50 (midpoint between 100% and the lowest measured viability); higher = less toxic
# [12] = system: Vero E6; experiment: as above
# [13] = system: Caco-2; experiment: as above
# [14] = system: HepG2; experiment: as above
Structure (SMILES),cell viability ([1]; 1 nM) [%],cell viability ([1]; 10 nM) [%],cell viability ([1]; 100 nM) [%],cell viability ([1]; 1000 nM) [%],cell viability ([1]; 10000 nM) [%],cell viability ([2]; 1 nM) [%],cell viability ([2]; 10 nM) [%],cell viability ([2]; 100 nM) [%],cell viability ([2]; 1000 nM) [%],cell viability ([2]; 10000 nM) [%],cell viability ([3]; 1 nM) [%],cell viability ([3]; 10 nM) [%],cell viability ([3]; 100 nM) [%],cell viability ([3]; 1000 nM) [%],cell viability ([3]; 10000 nM) [%],cell viability ([4]; 1 nM) [%],cell viability ([4]; 10 nM) [%],cell viability ([4]; 100 nM) [%],cell viability ([4]; 1000 nM) [%],cell viability ([4]; 10000 nM) [%],cell viability ([5]; 1 nM) [%],cell viability ([5]; 10 nM) [%],cell viability ([5]; 100 nM) [%],cell viability ([5]; 1000 nM) [%],cell viability ([5]; 10000 nM) [%],drug sensitivity score [6],drug sensitivity score [7],drug sensitivity score [8],drug sensitivity score [9],drug sensitivity score [10],relative viability EC50 [11] [µM],relative viability EC50 [12] [µM],relative viability EC50 [13] [µM],relative viability EC50 [14] [µM]
CN(C)CCCC(=O)Nc1ccc(C(=O)Nc2cccc(Nc3ncc(Cl)c(-c4c[nH]c5ccccc45)n3)c2)cc1 [THZ1-R],97.6,103,106,94.8,79.7,96.2,104,97.6,102,65.1,95.6,98,96.9,93.4,105,92.2,98.6,94.5,100,77.9,96,91.4,107,65.7,9.4,1.3,1.5,0,0.7,9.7,> 10,> 10,> 10,1.22
CCN(CC)CCOC(=O)C(c1ccccc1)c1ccccc1 [adiphenine],109,113,97,104,124,,,,,,111,116,105,107,99.2,105,102,95.1,98.3,103,103,109,106,113,99.1,0,,0,0,0,> 10,> 10,> 10,> 10
O=c1[nH]cnc2c1cnn2[C@@H]1O[C@H](CO)[C@@H](O)[C@H]1O [allopurinol-riboside],102,90.7,103,93.4,98.1,,,,,,102,100,98.2,103,102,97.7,98,111,91.8,101,,,,,,0,,0,0,,> 10,> 10,> 10,
COc1cc(N)cn[n+]1-c1ccccc1 [amezinium],97.8,110,106,89.9,96.6,,,,,,,,,,,109,108,100,110,97.8,,,,,,0,,,0,,> 10,,> 10,
CC(C)(S)C(=O)N[C@@H](CS)C(=O)O [bucillamine],,,,,,,,,,,,,,,,,,,,,,,,,,0,,0,,0,,,,
COc1cc2nccc(Oc3ccc(NC(=O)C4(C(=O)Nc5ccc(F)cc5)CC4)cc3)c2cc1OC [cabozantinib],94.2,109,100,88.1,39.2,103,104,99,98.3,50.1,101,98,97.2,99.3,48,93,97.4,96.7,82,35,107,92.6,97.1,98.9,44.4,5.3,2.8,2.8,6.3,3.1,1.75,3.07,1.47,3.02
COc1cc2c(cc1OC)C(=O)C(CC1CCN(Cc3ccccc3)CC1)C2 (stereo unspecified) [donepezil],91.9,92.4,96,92,94.1,,,,,,,,,,,103,102,104,91.4,96.4,114,106,98.8,102,91.2,0,,0.3,0,0,> 10,> 10,> 10,> 10
Cn1c(=O)c2c(ncn2CC2OCCO2)n(C)c1=O [doxofylline],,,,,,,,,,,,,,,,,,,,,,,,,,0,0,0,,1.3,,,,
CN1CCc2nc(C(=O)N[C@@H]3C[C@@H](C(=O)N(C)C)CC[C@@H]3NC(=O)C(=O)Nc3ccc(Cl)cn3)sc2C1 [edoxaban],97.6,96.4,92.8,98.3,105,,,,,,99.5,96,94.8,92.7,104,92.4,102,94.4,101,107,106,94.9,106,96.4,101,0,,0,0,0,> 10,> 10,> 10,> 10
CCn1cc(C(=O)O)c(=O)c2cc(F)c(N3CCNCC3)nc21 [enoxacin],97.7,103,106,105,107,,,,,,101,110,103,103,97.6,105,105,103,99.2,99.6,105,105,99.8,96,97.6,0,,0,0,0,> 10,> 10,> 10,> 10
CC(C)(C)c1ccc(CN(Cc2cccc(OCC(=O)O)c2)S(=O)(=O)c2cccnc2)cc1 [evatanepag],110,101,94.2,99.7,94.9,,,,,,108,104,102,97.4,93.5,98.5,97.8,101,102,101,99.1,108,91.7,94.3,93.6,0,,0,0,0,> 10,> 10,> 10,> 10
NS(=O)(=O)c1cc(C(=O)O)c(NCc2ccco2)cc1Cl [furosemide],98.1,95.3,103,81.5,104,,,,,,99.8,90.5,97.1,89.6,105,104,95.8,102,106,112,121,87.5,113,103,120,0,,0,0,0,> 10,> 10,> 10,> 10
NCCNC(=O)c1ccc(Cl)cn1 [lazabemide],,,,,,,,,,,95.6,99.2,90.8,91,104,98.1,95.6,101,103,101,99.6,96.4,113,114,125,,,0,0,0,,> 10,> 10,> 10
C#C[C@]1(OC(=O)CCCCCC)CC[C@H]2[C@@H]3CCC4=CC(=O)CC[C@@H]4[C@H]3CC[C@@]21C [norethisterone-enanthate],100,104,90,94.1,57.1,98.5,100,100,98.8,68.1,96.6,97.1,98.8,94.5,84.2,99.9,102,99.8,95.8,58.5,95.9,95.7,96.9,88.8,19.2,3.2,1.6,0.6,2.8,6.4,,> 10,,2.06
CCCN1CC(NS(=O)(=O)N(CC)CC)CC2Cc3c(O)cccc3CC21 (stereo unspecified) [quinagolide],85.9,110,95.8,97.5,86.1,,,,,,,,,,,107,104,106,98.9,96.3,,,,,,0.3,,,0,,> 10,,> 10,
CC(=O)NS(=O)(=O)c1ccc(N)cc1 [sulfacetamide],,,,,,,,,,,,,,,,,,,,,,,,,,0,,0,,0,,,,
C=CCN1CCc2nc(N)sc2CC1 [talipexole],,,,,,,,,,,103,107,98.1,100,100,102,104,99.2,106,102,,,,,,,,0,0,,,> 10,> 10,
COc1c(O[C@@H]2O[C@H](CO)[C@@H](O)[C@H](O)[C@H]2O)cc2c(c1OC)-c1ccc(SC)c(=O)cc1[C@@H](NC(C)=O)CC2 [thiocolchicoside],102,93.2,98.7,102,97.8,,,,,,102,104,99.1,106,103,96.1,96.4,82.7,102,94.5,97,100,91.4,97.2,90.9,0,,0,0,0,> 10,> 10,> 10,> 10
O=C(O)CCCC[C@@H]1CCSS1 [thioctic-acid],,,,,,,,,,,101,108,104,86.5,90.2,,,,,,114,97.9,111,106,120,,,0.8,,0,,> 10,,> 10
Cc1cccc(C)c1NC1=NCCCS1 [xylazine],94.4,102,92.1,114,90.2,,,,,,113,105,106,102,98.5,105,101,98.7,104,92.1,,,,,,0,,0,0,,> 10,> 10,> 10,
COC(=O)[C@@H]1[C@H]2C[C@H]3c4[nH]c5ccccc5c4CCN3C[C@@H]2CC[C@@H]1O [yohimbine],103,100,113,108,96.9,,,,,,110,105,101,101,98.6,,,,,,110,113,110,94.5,87.4,0,,0,,0.3,> 10,> 10,,> 10
